Data on 14 molecules can be found in PubChem BioAssay AID248 (DTP/NCI, 2004).

“And” between values parts separate entries of the source, which are not always exact repeats. Equal values may be shown once. Inconclusive results and toxic doses are left out.

This assay concerns L1210 leukemia ip in BDF1 mice, survival T/C. The assay can be described thus: NCI In Vivo Anticancer Drug Screen. Data for tumor model L1210 Leukemia (intraperitoneal) in B6D2F1 (BDF1) mice. Conditions: endpoint: mean survival time, higher = longer survival. The gist of the method:
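Read-out is survival time, reported as the treated-group measurement over the vehicle-control measurement.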

Where [1] appears, read: dose: 100.0 mg/kg/injection, schedule: Q04DX003 (ip), vehicle: saline with Tween-80.
[2] abbreviates: dose: 200.0 mg/kg/injection, schedule: Q04DX003 (ip), vehicle: saline with Tween-80.
Where [3] appears, read: dose: 400.0 mg/kg/injection, schedule: Q04DX003 (ip), vehicle: saline with Tween-80.
[4] abbreviates: dose: 100.0 mg/kg/injection, schedule: Q01DX009 (ip), vehicle: saline with Tween-80.
The mark [5] stands for this setting: dose: 200.0 mg/kg/injection, schedule: Q01DX009 (ip), vehicle: saline with Tween-80.

For `CCCNC1=C(C)C(=O)C2=C(C1=O)[C@H](COC(N)=O)[C@]1(OC)[C@@H]3N[C@@H]3CN21`, the T/C (dose: 2.9 mg/kg/injection, schedule: Q01DX001 (ip), vehicle: acetone) is 109 % of control; the T/C (dose: 4.3 mg/kg/injection, schedule: Q01DX001 (ip), vehicle: acetone) was 117 % of control; the T/C (dose: 4.5 mg/kg/injection, schedule: Q01DX009 (ip), vehicle: acetone) is 118 % of control; the T/C (dose: 6.6 mg/kg/injection, schedule: Q01DX001 (ip), vehicle: saline) was 108 % of control; the T/C (dose: 7.5 mg/kg/injection, schedule: Q01DX009 (ip), vehicle: acetone) is 86 % of control; the T/C (dose: 9.9 mg/kg/injection, schedule: Q01DX001 (ip), vehicle: saline) was 101 % of control. Further, the T/C is, setting by setting: (dose: 15.0 mg/kg/injection, schedule: Q01DX001 (ip), vehicle: acetone) 165 % of control; (dose: 15.0 mg/kg/injection, schedule: Q01DX001 (ip), vehicle: saline) 110 % of control; (dose: 22.0 mg/kg/injection, schedule: Q01DX001 (ip), vehicle: acetone) 92 % of control; (dose: 22.0 mg/kg/injection, schedule: Q01DX001 (ip), vehicle: saline) 113 % of control.

As for `O=C(Nc1ccc(Nc2ccncc2)cc1)c1ccc(Nc2ccnc3ccc([N+](=O)[O-])cc23)cc1`, the T/C is 92 % of control (dose: 100.0 mg/kg/injection, schedule: Q01DX009 (ip), vehicle: Klucel (hydroxypropylcellulose) (HPC)); 101 % of control (dose: 100.0 mg/kg/injection, schedule: Q04DX003 (ip), vehicle: Klucel (hydroxypropylcellulose) (HPC)); 109 % of control (dose: 200.0 mg/kg/injection, schedule: Q01DX009 (ip), vehicle: Klucel (hydroxypropylcellulose) (HPC)); 97 % of control (dose: 200.0 mg/kg/injection, schedule: Q04DX003 (ip), vehicle: Klucel (hydroxypropylcellulose) (HPC)); 95 % of control (dose: 400.0 mg/kg/injection, schedule: Q01DX009 (ip), vehicle: Klucel (hydroxypropylcellulose) (HPC)); 108 % of control (dose: 400.0 mg/kg/injection, schedule: Q04DX003 (ip), vehicle: Klucel (hydroxypropylcellulose) (HPC)).

As to `CN(C)[C@@H]1C(=O)C(C(=O)NCc2nc3[nH]cnc(=S)c3[nH]2)=C(O)[C@@]2(O)C(=O)C3=C(O)c4c(O)cccc4[C@@](C)(O)[C@H]3C[C@@H]12`, the T/C is, setting by setting: (dose: 16.0 mg/kg/injection, schedule: Q01DX Z (ip), vehicle: carboxymethylcellulose (CMC)) 107 % of control; (dose: 32.0 mg/kg/injection, schedule: Q01DX Z (ip), vehicle: carboxymethylcellulose (CMC)) 119 % of control; (dose: 56.0 mg/kg/injection, schedule: Q01DX Z (ip), vehicle: carboxymethylcellulose (CMC)) 103 % of control; (dose: 64.0 mg/kg/injection, schedule: Q01DX Z (ip), vehicle: carboxymethylcellulose (CMC)) 112 % of control; (dose: 128.0 mg/kg/injection, schedule: Q01DX Z (ip), vehicle: carboxymethylcellulose (CMC)) 150 % of control; (dose: 192.0 mg/kg/injection, schedule: Q01DX Z (ip), vehicle: carboxymethylcellulose (CMC)) 179 % of control.

Consider `O=C(O)/C(=C\c1ccc(Cl)cc1)c1ccc(C(F)(F)F)cc1[N+](=O)[O-]`, for which the T/C reads like this: under setting [1], 96 % of control; under setting [2], 94 % of control; under setting [3], 92 % of control.

As to `CCN(CC)C(=O)N1CCN(c2ccc(Cl)cc2)CC1`, the T/C by setting is: (dose: 75.0 mg/kg/injection, schedule: Q01DX001 (ip), vehicle: saline) 106 % of control; (dose: 75.0 mg/kg/injection, schedule: Q04DX003 (ip), vehicle: saline) 103 % of control; (dose: 150.0 mg/kg/injection, schedule: Q01DX001 (ip), vehicle: saline) 94 % of control; (dose: 150.0 mg/kg/injection, schedule: Q04DX003 (ip), vehicle: saline) 100 % of control; (dose: 300.0 mg/kg/injection, schedule: Q01DX001 (ip), vehicle: saline) 108 % of control; (dose: 300.0 mg/kg/injection, schedule: Q04DX003 (ip), vehicle: saline) 91 % of control.

With `CCOc1ccc(-c2cc(=O)c3c(OC)c(OC)c(OC)c(OC)c3o2)cc1`, the T/C (dose: 100.0 mg/kg/injection, schedule: Q01DX001 (sc), vehicle: steriod suspending solution) is 111 % of control; the T/C (dose: 200.0 mg/kg/injection, schedule: Q01DX001 (sc), vehicle: steriod suspending solution) is 96 % of control; the T/C (dose: 400.0 mg/kg/injection, schedule: Q01DX001 (sc), vehicle: steriod suspending solution) is 96 % of control.

Turning to `O=C(CC=C(c1ccccc1)c1ccccc1)Nc1ccccc1`, the T/C by setting is: (dose: 100.0 mg/kg/injection, schedule: Q01DX001 (ip), vehicle: saline with Tween-80) 90 % of control; (dose: 200.0 mg/kg/injection, schedule: Q01DX001 (ip), vehicle: saline with Tween-80) 87 % of control.

`CC(=O)OCC1OC(n2cc(C)c(=O)[nH]c2=O)C(OC(C)=O)C(OC(C)=O)C1OC(C)=O` (stereo not drawn): the T/C (dose: 100.0 mg/kg/injection, schedule: Q01DX001 (ip), vehicle: saline) is 94 % of control; the T/C (dose: 200.0 mg/kg/injection, schedule: Q01DX001 (ip), vehicle: saline) is 105 % of control; the T/C (dose: 400.0 mg/kg/injection, schedule: Q01DX001 (ip), vehicle: saline) is 97 % of control.

Consider `COc1ccc(-n2c(=O)c(N=Nc3ccccc3C)c(O)n(-c3ccc(C)cc3)c2=S)cc1`, for which the T/C is 95 % of control (dose: 100.0 mg/kg/injection, schedule: Q01DX001 (ip), vehicle: Klucel (hydroxypropylcellulose) (HPC)); 97 % of control (dose: 200.0 mg/kg/injection, schedule: Q01DX001 (ip), vehicle: Klucel (hydroxypropylcellulose) (HPC)); 97 % of control (dose: 400.0 mg/kg/injection, schedule: Q01DX001 (ip), vehicle: Klucel (hydroxypropylcellulose) (HPC)).

As to `CCN(CC)CCCNc1ncnc2c1C(c1ccccc1)c1ccccc1-2` (stereo not drawn), the T/C was 98 % of control (dose: 5.0 mg/kg/injection, schedule: Q01DX001 (ip), vehicle: saline); 96 % of control (dose: 10.0 mg/kg/injection, schedule: Q01DX001 (ip), vehicle: saline); 93 % of control (dose: 20.0 mg/kg/injection, schedule: Q01DX001 (ip), vehicle: saline); 93 % of control (dose: 40.0 mg/kg/injection, schedule: Q01DX001 (ip), vehicle: saline).

Consider `Cc1cc(N2C(=O)CSC2=S)ccc1Br`, for which the T/C runs as follows: under setting [4], 104 % of control; under setting [1], 96 % of control; under setting [5], 93 % of control; under setting [2], 93 % of control; under setting [3], 104 % of control.

`ON(C(=Nc1cccc2ccccc12)c1ccccc1)c1ccccc1`: the T/C reads like this: (dose: 75.0 mg/kg/injection, schedule: Q01DX001 (ip), vehicle: carboxymethylcellulose (CMC)) 97 % of control; (dose: 150.0 mg/kg/injection, schedule: Q01DX001 (ip), vehicle: carboxymethylcellulose (CMC)) 92 % of control; (dose: 300.0 mg/kg/injection, schedule: Q01DX001 (ip), vehicle: carboxymethylcellulose (CMC)) 98 % of control.

For `CCN(CC)P1(=O)NCCCO1` (stereo not drawn), the T/C is, setting by setting: under setting [4], 87 % of control; under setting [5], 94 % of control; (dose: 400.0 mg/kg/injection, schedule: Q01DX009 (ip), vehicle: saline with Tween-80) 92 % of control.

As to `CO[C@H](C)[C@](O)(C(=O)OCC1=CCN2CC[C@@H](O)[C@H]12)C(C)C`, the T/C (dose: 65.0 mg/kg/injection, schedule: Q01DX009 (ip), vehicle: saline) is 95 % of control and 109 % of control; the T/C (dose: 75.0 mg/kg/injection, schedule: Q01DX001 (ip), vehicle: acetone) is 106 % of control; the T/C (dose: 100.0 mg/kg/injection, schedule: Q01DX009 (ip), vehicle: saline) is 95 % of control and 105 % of control; the T/C (dose: 150.0 mg/kg/injection, schedule: Q01DX001 (ip), vehicle: acetone) was 103 % of control; the T/C (dose: 150.0 mg/kg/injection, schedule: Q01DX009 (ip), vehicle: saline) is 94 % of control; the T/C (dose: 300.0 mg/kg/injection, schedule: Q01DX001 (ip), vehicle: acetone) is 106 % of control.
